One test has as its target T1, Skp1 (V123D) (Homo sapiens, UniProt P63208, V123D).
T1 construct: His6; made in house; host or cells: Escherichia coli BL21 (DE3)
The experiment in a line: SPRi assay, Skp1 mutant. The format is binding. How it is done:
(§1) Freshly deposited gold coated standard SPRi chips/slides (Plexera, LLC) were cleaned, and compound(s) at 10 mM concentration in 100% DMSO were spotted on the chips using a micropipette. After this, the slides were left for complete evaporation of DMSO (under vacuum) at room temperature for 2 hrs. After printing, the slides were exposed to UV irradiation 2.4 J/cm^2 (365 nm) in a UV chamber (Amersham life science). The slides were subsequently washed with DMSO, ethanol, and finally with distilled water for 15 minutes (ultrasonically), respectively, to remove non-covalently bound compounds. After drying with nitrogen, the slides were assembled with flow cell and then mounted on SPRi instrument for measurement, or stored at 4°C to be used for later experiments.
(§2) All the experiments were carried out using the PlexArray® HT system (Plexera, LLC), which is based on surface plasmon resonance imaging. Oval regions of interests (ROIs) were set as 9 pixels × 7 pixels area in imaging area. ROIs of vehicle (DMSO) were used as controls for measurement of specific signals. All samples were injected with an association and dissociation flow rate of 3 μL s^−1 and at 25°C. A 1:3 mixture of glycine. HCL (pH 4.2) and 0.5% (v/v) SDS, respectively, was used to regenerate the surface and remove bound proteins from the small molecules enabling the sensor chip to be reused for additional analyte injections.
(§3) The Tris buffer (10 mM Tris-HCl pH 8.0, 100 mM NaCl), without any reducing agent, was used as both analyte and running buffer. Purified recombinant proteins, including Skp1^WT, ΔSkp1^1−140, and any of the desired mutant(s), were in the Tris buffer (10 mM Tris-HCl pH 8.0, 100 mM NaCl). For testing the compound(s), multiple concentrations (0.5 μM, 1 μM, 4 μM and 8 μM) of Skp1^WT or ΔSkp1^1−140 were flowed on the SPRi instrument as analyte to get accurate kinetic parameters. A typical sample injection cycle consists of 300 seconds association phase with the analyte solution and 400 seconds dissociation phase with running buffer at 3 μL s^−1 flow rate. Other purified proteins such as mutant forms of Skp1 were tested to confirm binding pocket specificity. The highest concentration tested for each protein was 8 μM. For data analysis, we choose two software packages, ORIGIN Lab and Data Analysis Module (DAM) of Plexera. All data from SPRi reported here are after subtraction of the background intensity/signal by DAM software. In short, the entire concentration of analyte was fitted with a 1:1 Langmuir interaction integrated rate equation to obtain the kinetic constants.

The target of another test is T2, Skp1 (F101A) (Homo sapiens, UniProt P63208, F101A).
T2 construct: His6; made in house; host or cells: Escherichia coli BL21 (DE3)
Description: SPRi assay, Skp1 mutant. The format is binding. How it is done: as §1, §2, §3

In the next test the target is T3, Skp1 (F139D) (Homo sapiens, UniProt P63208, F139D).
T3 construct: His6; made in house; host or cells: Escherichia coli BL21 (DE3)
Description: SPRi assay, Skp1 mutant. Format: binding. As for the experimental part:
as §1, §2, §3

In the next test the target is T4, Skp1 (F101W_V123T) (Homo sapiens, UniProt P63208, F101W/V123T).
T4 construct: His6; made in house; host or cells: Escherichia coli BL21 (DE3)
The experiment in a line: SPRi assay, Skp1 mutant. The format is binding. As for the experimental part: as §1, §2, §3

Another test addresses T5, Skp1 (Q97A) (Homo sapiens, UniProt P63208, Q97A).
T5 construct: His6; made in house; host or cells: Escherichia coli BL21 (DE3)
The experiment in a line: SPRi assay, Skp1 mutant. Format: binding. As for the experimental part:
as §1, §2, §3

The target in another test is T6, Skp1 (F101A_F139A) (Homo sapiens, UniProt P63208, F101A/F139A).
T6 construct: His6; made in house; host or cells: Escherichia coli BL21 (DE3)
The experiment in a line: SPRi assay, Skp1 mutant. Format: binding. As for the experimental part:
as §1, §2, §3

A further test concerns the target T7, Skp1^F139A (Homo sapiens, UniProt P63208, F139A).
T7 construct: His6; made in house; host or cells: Escherichia coli BL21 (DE3)
Description: SPRi assay, Skp1 mutant. Format: binding. As for the experimental part: as §1, §2, §3

Test [1] has as its system panel of cell lines derived from hematologic and solid tumors. The experiment in a line: Cell viability, panel of cell lines. Format: cell-based. To be noted: all the lines tested with complete cell killing; read-out: EC50 values across the panel. As for the experimental part:
For cell viability, cells were seeded in 384 opaque-walled plates with clear bottoms at 300–500 cells per well (optimum density for growth) in a total volume of 20 μL of media. The media was according to culture conditions of each individual cell line (mentioned above). After 12 hrs, compounds were added in a total volume of 5 μL of media (two-fold diluted) to each well with final concentrations from 5 nM to 30 μM. The measurements were conducted 48 hrs after seeding of the cells. Then, 25 μL of Cell-Titer GLO reagent (Promega) was added, and luminescence was measured on an EnSpire multimode plate reader (PerkinElmer), according to the manufacturer’s instructions. The estimated in vitro half-maximal inhibitory concentration (EC50) values were calculated using GraphPad Prism® v6.0 (San Diego, CA) software. The cell viability for A549 cells was also performed for 72- and 96-hrs by using the same experimental conditions as described above.

The next test deals with H358 cells. The experiment in a line: Caspase-Glo 3/7 activity. Format: cell-based. To be noted: dose- and time-dependent treatment. As for the experimental part: The activities of caspase-3/7, −8 and −9 were measured using Caspase-Glo® 3/7,8, and 9 assay kits (Promega, Madison, WI, USA) according to the manufacturer’s protocol. Briefly, the cells were plated over-night in a white 384 well microplate, and then treated as indicated with Z0933M. After treatment, 25 μL of each caspase substrate was added and incubated at room temperature for 30 min. Upon activation of caspase in the apoptotic cells, the substrate will give a luminescence signal after cleavage of the aminoluciferin-labelled synthetic tetrapeptide. Luminescent signals were detected using an EnSpire multimode plate reader (PerkinElmer). For inhibitor interventions and Skp1 overexpression, the experiments were performed in 96 well format.

For another test, the target named is T8, Skp1^WT (Homo sapiens, UniProt P63208).
T8 construct: recombinantly purify intact (Skp1^WT) and truncate (ΔSkp1^1−140; lacking H8-helix) forms of Skp1; His6; made in house; host or cells: Escherichia coli BL21 (DE3)
The experiment in a line: SPRi assay. The format is binding. As for the experimental part: as §1
as §2, with “injections. […]” for “injections.”

T8 sequence (P63208 whole entry, the tested form may be a part): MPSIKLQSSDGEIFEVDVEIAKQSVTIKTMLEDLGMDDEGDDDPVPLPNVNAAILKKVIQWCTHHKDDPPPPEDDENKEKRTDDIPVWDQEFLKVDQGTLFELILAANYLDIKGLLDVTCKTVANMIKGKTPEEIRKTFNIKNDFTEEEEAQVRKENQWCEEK
T4 sequence (P63208 whole entry F101W/V123T): as the sequence (P63208 whole entry, the tested form may be a part) above, with F101W, V123T counted along it
T7 sequence (P63208 whole entry F139A): as the sequence (P63208 whole entry, the tested form may be a part) above, with F139A counted along it
T2 sequence (P63208 whole entry F101A): as the sequence (P63208 whole entry, the tested form may be a part) above, with F101A counted along it
T3 sequence (P63208 whole entry F139D): as the sequence (P63208 whole entry, the tested form may be a part) above, with F139D counted along it
T1 sequence (P63208 whole entry V123D): as the sequence (P63208 whole entry, the tested form may be a part) above, with V123D counted along it
T5 sequence (P63208 whole entry Q97A): as the sequence (P63208 whole entry, the tested form may be a part) above, with Q97A counted along it
T6 sequence (P63208 whole entry F101A/F139A): as the sequence (P63208 whole entry, the tested form may be a part) above, with F101A, F139A counted along it

Consider `Nc1ccc(-c2nc3ccccc3c3[nH]c4ccccc4c23)cc1` [Z0933M], for which the Kd on Skp1 (V123D) came out at 1270 ± 95.5 nM; at Skp1 (F101A) it was 374 ± 45.6 nM; on Skp1 (F139D), 1140 ± 95.5 nM; on Skp1 (F101W_V123T), 336 ± 36.8 nM; on Skp1 (Q97A), 477 ± 4.95 nM; on Skp1 (F101A_F139A), 799 ± 54.8 nM. For the same molecule, the Kd at Skp1^F139A is 455 ± 47.7 nM; at Skp1^WT (SPRi, Skp1^WT), 54.7 ± 6.68 nM; at Skp1^WT (as given in the summary), around 54 nM. Further, the EC50 in test [1] was 250 to 4000 nM. The “caspase 3/7 activity” value in the test with H358 cells is “failed to do so”.

The term Kd denotes the constant that tells how readily two partners part at equilibrium. Read a high Kd as lower affinity. Broadly, the EC50 is the concentration needed to bring the measured effect to its halfway point.

The values above are taken from PMC9249674, “A small-molecule Skp1 inhibitor elicits cell death by p53-dependent mechanism” (iScience, 2022).
